For one assay, the system named is MGC-803. As to the kind of experiment: Antiproliferative activity against human MGC-803 cells assessed as reduction in cell viability measured after 72 hrs by CCK-8 assay. Format: functional, cell-based. Particulars: MGC-803, 72 h. (In general: Tetrazolium assays rely on reduction of a dye to a coloured formazan, in cell work by metabolically active cells.)
The next assay concerns AGS. The assay is described as follows: Antiproliferative activity against human AGS cells assessed as reduction in cell viability incubated for 72 hrs by CCK-8 assay. Format: functional, cell-based.

Take `O=C([C@H]1CCN1S(=O)(=O)c1c(F)c(F)c(F)c(F)c1F)N(Cc1ccc(C2CCCCC2)cc1)c1ccc(B(O)O)cc1`: the figures for the 50% inhibitory concentration (IC50) in the assay on MGC-803 and in the assay on AGS were 4.83 µM and 1.98 µM, respectively.

These data come from ChEMBL document CHEMBL5214948, “Boronic Acid: A Novel Pharmacophore Targeting Src Homology 2 (SH2) Domain of STAT3” (J Med Chem, 2022).
